Experiment [1] has as its target T1, EGFR (ErbB1) (Homo sapiens, UniProt P00533).
T1 construct: purchased Invitrogen
Kind of experiment: Z'-LYTE kinase inhibition assay (Invitrogen), EGFR. The format is biochemical. Particulars: for inhibition at 0.1 µM: compound at 100 nM, [ATP] = Km; for inhibition at 0.041 µM: compound at 41 nM, 10 μM of ATP. As for the experimental part:
(§1) Inhibitory activities of compounds against BTK, EGFR and EGFR mutants (EGFR L858R/T790M) were measured by Invitrogen using Z′-LYTE® Method as briefly described in the following.
(§2) Test Compounds are screened in 1% DMSO (final) in the well. For 10 point titrations, 3-fold serial dilutions are conducted from the starting concentration. All ATP Solutions are diluted to a 4× working concentration in Kinase Buffer (50 mM HEPES pH 7.5, 0.01% BRIJ-35, 10 mM MgCl2, 1 mM EGTA). Peptide/Kinase Mixtures are diluted to a 2× working concentration in the appropriate Kinase Buffers as described below.
(i) Peptide/Kinase Mixtures for measurement of EGFR (ErbB1):
The 2×EGFR (ErbB1)/Tyr 04 mixture is prepared in 50 mM HEPES pH 7.5, 0.01% BRIJ-35, 10 mM MgCl2, 4 mM MnCl2, 1 mM EGTA, 2 mMDTT. The final 10 μL Kinase Reaction consists of 1.1-5.25 ng EGFR (ErbB1) and 2 μM Tyr 04 in 50 mM HEPES pH 7.5, 0.01% BRIJ-35, 10 mM MgCl2, 2 mM MnCl2, 1 mM EGTA, 1 mM DTT. After the 1 hour Kinase Reaction incubation, 5 μL of a 1:64 dilution of DevelopmentReagent B is added.
(§3) Reaction starts by 30-second shaking of mixture consisting of 2.5 μL 4× test compound, 5 μL 2× kinase reaction mixture and 2.5 μL 4×ATP Solution on Bar-coded Corning, low volume NBS, black 384-well plate (Corning Cat. #3676). Then the mixture is incubated for 60-minute at room temperature for the kinase reaction, followed by addition of 5 μL of a 1:1024 dilution of development reagent A and 30-second plate shake. The mixture is then incubated for another 60-minute at room temperature for development reaction. Finally fluorescence is read by plate reader. […] The scale utilized in Tables 2 and 3 is as follows: ++ more than 50% inhibition and + less than 50% inhibition.
(§4) To determine IC50 of a compound against EGFR or EGFR mutants, a series of concentrations of the compound were tested for the inhibition. IC50 was calculated by plotting the concentration of compound vs the percentage of inhibition in treated wells using GraphPad Prism 5. […] The scale utilized in Table 4 is as follows: ++ less than 100 nM and + greater than 100 nM.

For experiment [2], the target named is T2, EGFR (ErbB1) T790M L858R (Homo sapiens, UniProt P00533, L858R/T790M).
T2 construct: purchased Invitrogen
Kind of experiment: Z'-LYTE kinase inhibition assay (Invitrogen), EGFR L858R/T790M. The format is biochemical. The conditions noted are these: for inhibition at 0.1 µM: compound at 100 nM, [ATP] = Km; for inhibition at 0.0137 µM: compound at 13.7 nM, 10 μM of ATP. As for the experimental part: as §1, §2
(iv) Peptide/Kinase Mixtures for measurement of EGFR (ErbB1) T790M L858R:
The 2×EGFR (ErbB1) T790M L858R/Tyr 04 mixture is prepared in 50 mM HEPES pH 6.5, 0.01% BRIJ-35, 10 mM MgCl2, 1 mM EGTA, 0.02% NaN3. The final 10 μL Kinase Reaction consists of 0.38-4.22 ng EGFR (ErbB1) T790M L858R and 2 μM Tyr 04 in 50 mM HEPES pH 7.0, 0.01% BRIJ-35, 10 mM MgCl2, 1 mM EGTA, 0.01% NaN3. After the 1 hour Kinase Reaction incubation, 5 μL of a 1:64 dilution of Development Reagent B is added.
as §3, §4

Experiment [3] has as its target T3, BTK (Homo sapiens, UniProt Q06187).
T3 construct: purchased Invitrogen
Kind of experiment: Z'-LYTE kinase inhibition assay (Invitrogen), BTK. The format is biochemical. The conditions noted are these: for inhibition at 0.1 µM: compound at 100 nM, [ATP] = Km; for inhibition at 0.041 µM: compound at 41 nM, 10 μM of ATP. How it is done: as §1, §2
(v) Peptide/Kinase Mixtures for measurement of BTK:
The 2×BTK/Tyr 01 mixture is prepared in 50 mM HEPES pH 7.5, 0.01% BRIJ-35, 10 mM MgCl2, 1 mM EGTA. The final 10 μL Kinase Reaction consists of 1.04-10.4 ng BTK and 2 μM Tyr 01 in 50 mM HEPES pH 7.5, 0.01% BRIJ-35, 10 mM MgCl2, 1 mM EGTA. After the 1 hour Kinase Reaction incubation, 5 μL of a 1:256 dilution of Development Reagent B is added.
as §3, §4

The subject of experiment [4] is H1975 cells. The experiment is described as follows: MTT cell growth inhibition assay, H1975. The format is cell-based. Particulars: Homo sapiens, NCI-H1975, H1975 cells (EGFR L858R/T790M), 72 h. As for the experimental part:
Inhibition of cell growth by compounds was measured using MTT assay (Mosmann, T., Journal of Immunological Methods, 1983, 65, 55-63). Tumor cell lines were purchased from ATCC (American Type Culture Collection, Manassas, Va.). All cell lines were maintained in RPMI 1640 (Hyclone) supplemented with 10% fetal bovine serum (FBS, Hyclone), glutamine (2 mM, Hyclone), and antibiotics (penicillin 100 U/mL and streptomycin 50 μg/mL) at 37° C. in a humidified atmosphere of 5% CO2 in air. Taxol (as a positive control, Sigma) and compounds were dissolved in DMSO (Sigma), and the final concentration of DMSO in the medium was 1%. Tumor cells were plated in 96-well plates at densities of about 4000 cells/well of a 96-well plate and allowed to adhere/grow for 24 h. They were then treated with various concentrations of drug for 72 h. 3-(4,5-Dimethylthiazol-2-yl)-2,5-diphenyltetrazolium bromide (MTT, Sigma) was used to determine the number of viable cells at the time of compound addition and the number of cells remaining after 72 h compound exposure. The number of cells remaining after 72 h was compared to the number of viable cells at the time of compound addition by measuring the absorbance at 570 nm, allowing for the calculation of growth inhibition.
All concentrations of compounds were tested in triplicate and controls were averaged over 4 wells. IC50 was calculated by plotting the concentration of compound vs the percentage of inhibition in treated wells using GraphPad Prism 5.
Tables 5 show IC50 values of several compounds of the invention in A549, A431, H1299, and H1975 human cancer cells. A549 cells have a mutation on KRAS, H3255 cells have L858R mutation, and H1975 cells have double EGFR mutations (L858R/T790M). The scale utilized in Table 5 is as follows: +++ less than 100 nM; ++ between 100 nM and 500 nM; and + greater than 500 nM.

Structures are written as SMILES.

T2 sequence (P00533 25-1210 T790M/L858R): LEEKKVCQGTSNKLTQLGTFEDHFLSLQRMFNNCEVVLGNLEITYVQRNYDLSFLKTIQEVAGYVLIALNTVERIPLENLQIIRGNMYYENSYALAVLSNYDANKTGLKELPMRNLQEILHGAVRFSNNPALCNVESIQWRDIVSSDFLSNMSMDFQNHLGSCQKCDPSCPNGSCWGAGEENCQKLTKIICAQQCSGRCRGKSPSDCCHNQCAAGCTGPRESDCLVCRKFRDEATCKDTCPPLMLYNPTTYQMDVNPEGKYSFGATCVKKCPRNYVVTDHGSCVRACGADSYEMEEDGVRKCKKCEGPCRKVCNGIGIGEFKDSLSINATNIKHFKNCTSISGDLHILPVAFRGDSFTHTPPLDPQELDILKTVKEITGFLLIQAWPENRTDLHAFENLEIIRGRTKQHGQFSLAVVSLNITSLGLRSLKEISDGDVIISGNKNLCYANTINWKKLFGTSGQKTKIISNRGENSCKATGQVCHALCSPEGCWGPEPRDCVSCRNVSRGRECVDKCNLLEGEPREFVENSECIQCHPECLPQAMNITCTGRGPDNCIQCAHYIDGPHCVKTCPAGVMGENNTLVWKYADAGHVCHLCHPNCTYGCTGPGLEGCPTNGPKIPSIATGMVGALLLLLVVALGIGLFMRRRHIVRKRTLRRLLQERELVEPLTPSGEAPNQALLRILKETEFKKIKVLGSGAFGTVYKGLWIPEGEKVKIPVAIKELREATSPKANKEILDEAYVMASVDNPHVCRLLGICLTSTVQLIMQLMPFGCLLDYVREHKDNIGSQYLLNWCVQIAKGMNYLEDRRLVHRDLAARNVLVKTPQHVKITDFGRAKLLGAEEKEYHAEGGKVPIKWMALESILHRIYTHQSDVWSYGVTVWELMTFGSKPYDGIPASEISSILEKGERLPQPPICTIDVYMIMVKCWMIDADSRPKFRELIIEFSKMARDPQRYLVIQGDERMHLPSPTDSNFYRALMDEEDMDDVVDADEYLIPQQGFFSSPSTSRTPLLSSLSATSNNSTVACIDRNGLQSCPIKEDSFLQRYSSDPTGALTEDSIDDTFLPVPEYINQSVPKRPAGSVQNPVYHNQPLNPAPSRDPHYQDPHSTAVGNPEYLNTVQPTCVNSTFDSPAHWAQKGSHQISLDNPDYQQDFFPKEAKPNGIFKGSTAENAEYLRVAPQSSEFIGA
T3 sequence (Q06187 whole entry): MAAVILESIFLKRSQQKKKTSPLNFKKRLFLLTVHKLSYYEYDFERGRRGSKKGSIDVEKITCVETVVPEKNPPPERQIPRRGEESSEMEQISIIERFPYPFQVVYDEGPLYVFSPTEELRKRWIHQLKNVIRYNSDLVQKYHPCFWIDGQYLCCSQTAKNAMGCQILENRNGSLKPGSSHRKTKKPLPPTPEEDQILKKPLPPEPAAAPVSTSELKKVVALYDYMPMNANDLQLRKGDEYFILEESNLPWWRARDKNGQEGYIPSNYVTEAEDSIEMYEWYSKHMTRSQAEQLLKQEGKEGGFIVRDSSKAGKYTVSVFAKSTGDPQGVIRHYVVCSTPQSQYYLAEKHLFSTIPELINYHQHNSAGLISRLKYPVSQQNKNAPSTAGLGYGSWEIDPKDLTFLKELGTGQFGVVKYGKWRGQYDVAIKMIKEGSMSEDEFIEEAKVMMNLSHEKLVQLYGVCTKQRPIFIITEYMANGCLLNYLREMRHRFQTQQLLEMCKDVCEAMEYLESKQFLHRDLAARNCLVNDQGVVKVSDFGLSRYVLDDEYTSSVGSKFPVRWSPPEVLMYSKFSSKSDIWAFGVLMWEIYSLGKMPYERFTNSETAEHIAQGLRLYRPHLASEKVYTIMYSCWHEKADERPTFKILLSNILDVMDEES
T1 sequence (P00533 25-1210): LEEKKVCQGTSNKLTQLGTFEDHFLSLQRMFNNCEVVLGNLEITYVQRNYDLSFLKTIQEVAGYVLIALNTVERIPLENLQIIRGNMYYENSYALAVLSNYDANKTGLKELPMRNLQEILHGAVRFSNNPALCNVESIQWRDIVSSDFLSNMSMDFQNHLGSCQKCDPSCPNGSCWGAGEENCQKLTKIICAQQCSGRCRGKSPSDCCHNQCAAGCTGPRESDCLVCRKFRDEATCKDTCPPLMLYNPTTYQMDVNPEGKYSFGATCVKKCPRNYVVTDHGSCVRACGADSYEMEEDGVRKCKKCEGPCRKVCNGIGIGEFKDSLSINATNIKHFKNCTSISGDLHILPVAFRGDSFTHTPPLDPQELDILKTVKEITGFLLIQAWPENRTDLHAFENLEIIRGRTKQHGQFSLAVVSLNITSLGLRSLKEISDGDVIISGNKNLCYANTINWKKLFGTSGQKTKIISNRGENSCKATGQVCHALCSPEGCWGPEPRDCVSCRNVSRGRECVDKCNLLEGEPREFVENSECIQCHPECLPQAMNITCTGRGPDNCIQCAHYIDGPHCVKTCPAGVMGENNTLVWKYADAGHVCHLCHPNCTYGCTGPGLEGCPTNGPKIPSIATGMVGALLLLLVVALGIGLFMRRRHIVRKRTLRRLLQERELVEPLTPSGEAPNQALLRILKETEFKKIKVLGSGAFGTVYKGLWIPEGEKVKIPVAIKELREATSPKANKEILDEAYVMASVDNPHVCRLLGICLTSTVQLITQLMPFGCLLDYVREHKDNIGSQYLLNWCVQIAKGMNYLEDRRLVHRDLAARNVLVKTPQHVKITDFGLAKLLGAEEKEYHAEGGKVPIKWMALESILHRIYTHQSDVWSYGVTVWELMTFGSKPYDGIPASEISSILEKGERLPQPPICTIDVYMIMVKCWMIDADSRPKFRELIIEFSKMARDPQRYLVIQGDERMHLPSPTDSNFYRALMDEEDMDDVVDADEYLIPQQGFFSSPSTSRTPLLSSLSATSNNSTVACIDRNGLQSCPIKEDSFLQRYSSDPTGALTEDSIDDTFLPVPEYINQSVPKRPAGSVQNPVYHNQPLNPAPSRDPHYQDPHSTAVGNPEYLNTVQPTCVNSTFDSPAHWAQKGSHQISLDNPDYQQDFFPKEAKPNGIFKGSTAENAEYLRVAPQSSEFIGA

The term inhibition denotes the share of the control response that was lost under treatment. Turning to `C=CC(=O)N1CCC(n2cnc3cnc(Nc4ccc(N5CCN(CCO)CC5)c(F)c4F)nc32)C1` (centres unmarked) [Example A022], the inhibition at 0.1 µM in experiment [1], in experiment [2] and in experiment [3] was below 50% throughout.

In the case of `C=CC(=O)N1CCCC(n2cnc3cnc(Nc4ccc(N5CCN(C)CC5)c(F)c4F)nc32)C1` (centres unmarked) [Example A023, 1-(3-(2-((2,3-difluoro-4-(4-methylpiperazin-1-yl)phenyl)amino)-9H-purin-9-yl)piperidin-1-yl)prop-2-en-1-one], the inhibition at 0.1 µM in experiment [1], in experiment [2] and in experiment [3] was below 50% in each case.

Turning to `C=CC(=O)N1CCCC(n2cnc3cnc(Nc4ccc(N5CCN(CCO)CC5)c(F)c4F)nc32)C1` (centres unmarked) [Example A024, 1-(3-(2-((2,3-difluoro-4-(4-(2-hydroxyethyl)piperazin-1-yl)phenyl)amino)-9H-purin-9-yl)piperidin-1-yl)prop-2-en-1-one], the inhibition at 0.1 µM in experiment [1], in experiment [2] and in experiment [3] was below 50% in each case.

As usually defined, the IC50 is the concentration that inhibits the measured activity by half. Low readings indicate inhibition by little substance, high ones a need for much substance. The compound `C=CC(=O)Nc1cc(Nc2ncc3cccc(Br)c3n2)ccc1N(C)CCN(C)C` [Example C001, N-(5-((8-bromoquinazolin-2-yl)amino)-2-((2-(dimethylamino)ethyl)(methyl)amino)phenyl) acrylamide] returned an inhibition at 0.0137 µM in experiment [2] below 50%. For the same compound, in experiment [4], the IC50 was below 100 nM.

Consider `C=CC(=O)Nc1cc(Nc2ncc3cccc(-c4ccncc4)c3n2)ccc1N(C)CCN(C)C` [Example C007, N-(2-((2-(dimethylamino)ethyl)(methyl)amino)-5-((8-(pyridin-4-yl)quinazolin-2-yl)amino)phenyl)acrylamide], for which the results for the inhibition at 0.041 µM in experiment [1] and in experiment [3] were below 50% and above 50%, respectively. The values for the inhibition at 0.1 µM in experiment [1], in experiment [2] and in experiment [3] were below 50%, below 50% and above 50%, respectively. For the same compound, the inhibition at 0.0137 µM in experiment [2] was below 50%. In experiment [4], this compound came in with an IC50 below 100 nM.

In experiment [1], `C=CC(=O)Nc1cc(Nc2ncc3cccc(-c4ccccc4F)c3n2)ccc1N(C)CCN(C)C` [Example C009, N-(2-((2-(dimethylamino)ethyl)(methyl)amino)-5-((8-(2-fluorophenyl)quinazolin-2-yl)amino)phenyl)acrylamide] had an inhibition at 0.041 µM below 50% and an inhibition at 0.1 µM below 50%. In experiment [2], this compound registered an inhibition at 0.0137 µM above 50% and an inhibition at 0.1 µM below 50%. In experiment [3], this compound yielded an inhibition at 0.041 µM above 50% and an inhibition at 0.1 µM above 50%. In experiment [4], this compound gave an IC50 below 100 nM.

In experiment [1], `C=CC(=O)Nc1cc(Nc2ncc3cccc(-c4cccnc4)c3n2)ccc1N(C)CCN(C)C` [Example C010, N-(2-((2-(dimethylamino)ethyl)(methyl)amino)-5-((8-(pyridin-3-yl)quinazolin-2-yl)amino)phenyl)acrylamide] showed an inhibition at 0.041 µM below 50% and an inhibition at 0.1 µM below 50%. For the same compound, in experiment [2], the inhibition at 0.0137 µM is below 50% and the inhibition at 0.1 µM was below 50%. In experiment [3], this compound came in with an inhibition at 0.041 µM above 50% and an inhibition at 0.1 µM above 50%. In addition, the concentration for half-maximal inhibition (IC50) in experiment [4] was in the range of 100 to 500 nM.

Turning to `C=CC(=O)Nc1cc(Nc2ncc3cccc(-c4cccc(Cl)c4)c3n2)ccc1N1CCN(C)CC1` [Example C011, N-(5-((8-(3-chlorophenyl)quinazolin-2-yl)amino)-2-(4-methylpiperazin-1-yl)phenyl)acrylamide], in experiment [1], the inhibition at 0.041 µM was below 50% and the inhibition at 0.1 µM was below 50%. In experiment [2], this compound displayed an inhibition at 0.0137 µM below 50% and an inhibition at 0.1 µM below 50%. This compound came in with an inhibition at 0.1 µM in experiment [3] above 50%. Besides, the IC50 in experiment [4] is below 100 nM.

Regarding `C=CC(=O)Nc1cc(Nc2ncc3cccc(-c4cccc(Cl)c4)c3n2)ccc1OCCN(C)C` [Example C012, N-(5-((8-(3-chlorophenyl)quinazolin-2-yl)amino)-2-(2-(dimethylamino)ethoxy)phenyl)acrylamide], in experiment [1], the inhibition at 0.041 µM is below 50% and the inhibition at 0.1 µM was below 50%. In experiment [2], this compound returned an inhibition at 0.0137 µM above 50% and an inhibition at 0.1 µM below 50%. For the same compound, in experiment [3], the inhibition at 0.1 µM was above 50%. For the same compound, the IC50 in experiment [4] is below 100 nM.

In experiment [1], `C=CC(=O)Nc1cc(Nc2ncc3cccc(-c4cccc(Cl)c4)c3n2)ccc1OC1CCN(C)CC1` [Example C013, N-(5-((8-(3-chlorophenyl)quinazolin-2-yl)amino)-2-((1-methylpiperidin-4-yl)oxy)phenyl)acrylamide] showed an inhibition at 0.041 µM below 50% and an inhibition at 0.1 µM below 50%. In experiment [2], this compound gave an inhibition at 0.0137 µM above 50% and an inhibition at 0.1 µM below 50%. The compound further gave an inhibition at 0.1 µM in experiment [3] above 50%. For the same compound, the half-inhibitory concentration (IC50) in experiment [4] was in the range of 100 to 500 nM.

Compound `C=CC(=O)Nc1cc(Nc2ncc3cccc(-c4ccccc4Cl)c3n2)ccc1OCCN(C)C` [Example C014, N-(5-((8-(2-chlorophenyl)quinazolin-2-yl)amino)-2-(2-(dimethylamino)ethoxy)phenyl)acrylamide] gave an inhibition at 0.041 µM in experiment [1] below 50%. In addition, the inhibition at 0.1 µM is below 50% in experiment [1], below 50% in experiment [2] and above 50% in experiment [3]. Moreover, the inhibition at 0.0137 µM in experiment [2] was below 50%. The compound also showed an IC50 in experiment [4] below 100 nM.

Regarding `C=CC(=O)Nc1cc(Nc2ncc3cccc(-c4cccc(Cl)c4)c3n2)ccc1OCCOC` [Example C015, N-(5-((8-(3-chlorophenyl)quinazolin-2-yl)amino)-2-(2-methoxyethoxy)phenyl)acrylamide], the inhibition at 0.041 µM in experiment [1] was below 50%. The inhibition at 0.1 µM in experiment [1], in experiment [2] and in experiment [3] was below 50% each time. The inhibition at 0.0137 µM in experiment [2] was below 50%. In experiment [4], this compound came in with an IC50 above 500 nM.
